≈ marks a conversion by molar mass, not a printed value. Each block holds one compound with its values, some of them ahead of it.
Legend:
[1] = DLS size distribution of API-loaded micelles, Example 8; assay type: physicochemical; settings: PcBOx triblock (PMeOx-PcBOx-PMeOx) micelles
Method: (§1) Drug-encapsulated polymeric nanoparticle formulations were prepared by the thin film hydration method. For resiquimod, imiquimod, and RXDX-105, stock solutions of PMeOx-PcBOx-PMeOx and drugs in chloroform:methanol (9:1) solution were mixed together at the pre-determined ratios (8:10 drug to polymer w/w ratio (resiquimod), 2:10 w/w ratio (imiquimod), 4:10 w/w ratio (RXDX-105)). The organic solvent was evaporated at 58° C. under a stream of inert gas to form a thin-film of drug-polymer homogenous mixture. Next, the thin films were hydrated with saline and then incubated for 5-10 min to form drug-encapsulated polymeric micelle solutions. All samples were prepared with 1 mg of polymer and hydrated with 100 uL of saline. The formed micelle solutions were centrifuged at 10,000 rpm for 3 minutes (Sorvall Legend Micro 21R Centrifuge, Thermo Scientific) to remove any precipitate of unloaded drug or polymer. The final concentration of drugs in PMeOx-PcBOx-PMeOx micelles was analyzed by HPLC (Agilent Technologies 1200 series) using a mixture of acetonitrile/water (70%/30% v/v for Resiquimod and imiquimod; 50%/50% v/v for RXDX-105) as the mobile phase. The samples were diluted with mobile phase to final concentration of ˜100 μg/mL of drugs and injected (10 μL) into the HPLC system. The flow rate was 1.0 mL/min, and column temperature was 40° C. Detection wavelength was 254 nm. Drug concentration was quantified against free drug calibration curves. Particle z-average effective diameter and polydispersity index (PDI) were measured by dynamic light scattering (DLS) (Nano-ZS, Malvern Instruments, UK).

[2] = Loading capacity of API-loaded micelles (thin film hydration, HPLC), Example 8; assay type: physicochemical; settings: PcBOx triblock (PMeOx-PcBOx-PMeOx) micelles, polymer 10 mg/ml
Method: as §1, with “The samples were diluted with mobile phase to final concentration of ˜100 μg/mL of drugs and injected (10 μL) into the HPLC system. The flow rate was 1.0 mL/min, and column temperature was 40° C. Detection wavelength was 254 nm.” left out, “UK). […]” for “UK).”

[3] = Solubilization of poorly soluble drugs in PMeOx-PcBOx polymeric micelles; settings: polymer 10 mg/ml
From the text: (§2) (P2). The molecules examined belonged to different classes including transforming growth factor β (TGF-β) receptor inhibitors (LY2109761, GW788388 and LY364947), protein synthesis inhibitors (bruceantin), toll-like receptor (TLR) 7 agonist (imiquimod), phosphatidylinositol 3-kinase (PI3K) inhibitors (wortmannin and pictilisib (GDC-0941)), microtubule inhibitor (paclitaxel), and topoisomerase inhibitors (Aclacinomycin A and SN-38). […] Drugs were screened at various ratios, beginning at 1:10 (drug:polymer), and increased the ratio until maximal solubility was obtained.

[4] = physchem
From the text: as §2

[5] = DLS size distribution of drug-loaded PMeOx-PcBOx micelle formulations; assay type: physicochemical; settings: drug-loaded PMeOx-PcBOx micelle formulation
[6] = Release profile of encapsulated drugs from polymeric micelles; assay type: physicochemical; settings: from P2, after 24 hours, 10:1 polymer:drug feeding ratio
Method: The release profile of encapsulated drugs (Paclitaxel and Bruceantin) in PMeOx-PcBOx was investigated. Both Paclitaxel and Bruceantin were continuously released from PMeOx-PcBOx nanoparticle, with over 80% of drugs being released at 24 hour time point (FIG. 5C). The release rates were similar for Bruceantin in both of the polymers. […] After 24 hours, most of the PTX was released in PcBOx whereas not even 50% was released from P2. This kind of release data is consistent with previously published data at this low (10:1) polymer:drug feeding ratio. Both paclitaxel and Bruceantin formulation in PMeOx-PcBOx were proven stable for 8 days at 4° C. as the drug loading and size distribution were monitored (FIGS. 5E and 5F).

Deff [1]: 112 nm
PDI [1]: 0.30
LC (%) [2]: 24.1%
SMILES: COc1cc2ncnc(Oc3cccc(NC(=O)Nc4cc(C(C)(C)C(F)(F)F)on4)c3)c2cc1OC [RXDX-105]

LC (maximum loading capacity) [3]: 0.2%
SMILES: O=C(NC1CCOCC1)c1ccc(-c2cc(-c3c[nH]nc3-c3ccccn3)ccn2)cc1 [GW788388]

solubilization (in words) [4]: practically insoluble
Deff [1]: 160 nm
PDI [1]: 0.18
LC (%) [2]: 14.1%
LC (maximum loading capacity) [3]: undetectable
SMILES: CC(C)Cn1cnc2c(N)nc3ccccc3c21 [Imiquimod, imiquimod]

SMILES: c1ccc(-c2[nH]ncc2-c2ccnc3ccccc23)nc1 [LY364947]
LC (maximum loading capacity) [3]: 0.3%

SMILES: CCc1c2c(nc3ccc(O)cc13)-c1cc3c(c(=O)n1C2)COC(=O)[C@]3(O)CC [SN-38]
LC (maximum loading capacity) [3]: undetectable

SMILES: c1ccc(-c2nn3c(c2-c2ccnc4cc(OCCN5CCOCC5)ccc24)CCC3)nc1 [LY2109761]
LC (maximum loading capacity) ([4]; P2 micelles, polymer 10 mg/ml): 14.0%
LE (loading efficiency) ([4]; P2 micelles, polymer 10 mg/ml): 78%
maximal solubilized drug concentration ([4]; P2 micelles, polymer 10 mg/ml): 1.5 mg/mL
Dv10 [5]: 15.5 nm
Dv50 [5]: 21.5 nm
Dv90 [5]: 34.8 nm
PDI [5]: 0.4
size in DLS measurement [5]: 50 nm
LC (maximum loading capacity) [3]: 24.7%
LE (loading efficiency) [3]: 82%
maximal solubilized drug concentration [3]: ~3.28 mg/mL

LC (maximum loading capacity) ([4]; P2 micelles, polymer 10 mg/ml): 41%
LE (loading efficiency) ([4]; P2 micelles, polymer 10 mg/ml): 86%
solubility ([4]; aqueous with cosolvent or surfactant or cyclodextrin): 6890 µg/mL (≈ 8.07 mM)
Dv10 [5]: 23.3 nm
Dv50 [5]: 34.6 nm
Dv90 [5]: 80.9 nm
PDI [5]: 0.298
size in DLS measurement [5]: 85 nm
drug released [6]: < 50%
LC (maximum loading capacity) [3]: 6.3%
SMILES: CC(=O)O[C@H]1C(=O)[C@@]2(C)[C@H]([C@H](OC(=O)c3ccccc3)[C@]3(O)C[C@H](OC(=O)[C@H](O)[C@@H](NC(=O)c4ccccc4)c4ccccc4)C(C)=C1C3(C)C)[C@]1(OC(C)=O)CO[C@@H]1C[C@@H]2O [paclitaxel]

SMILES: CC[C@@]1(O)C[C@H](O[C@H]2C[C@H](N(C)C)[C@H](O[C@H]3C[C@H](O)[C@H](O[C@H]4CCC(=O)[C@H](C)O4)[C@H](C)O3)[C@H](C)O2)c2c(cc3c(c2O)C(=O)c2c(O)cccc2C3=O)[C@H]1C(=O)OC [aclacinomycin A, Aclacinomycin A]
LC (maximum loading capacity) [3]: 6.8%

solubilization (in words) [4]: practically insoluble
LC (maximum loading capacity) [3]: 4.3%
SMILES: CS(=O)(=O)N1CCN(Cc2cc3nc(-c4cccc5[nH]ncc45)nc(N4CCOCC4)c3s2)CC1 [GDC-0941, pictilisib]

Reference: patent US12448475B2, “Drug delivery compositions and applications thereof” (The University of North Carolina at Chapel Hill, priority 2019, dated 2025)
